This is an account of results in ChEMBL document CHEMBL4699483, “Synthesis of functionalized derivatives of the gamma-secretase modulator BMS-932481 and identification of its major metabolite” (Bioorg Med Chem Lett, 2020).

Series [1] concerns the target Gamma-secretase. Put plainly: Modulation of gamma secretase (unknown origin) assessed as inhibition of amyloid beta (1 to 42 residues) production. The class given is protein-complex assay, Homo sapiens.
Series [2] can be described thus: Metabolic stability in rat liver microsomes assessed as parent compound remaining incubated for 30 mins. The class given is ADME, Microsome. Conditions: read-out: Stabilty; call rule not given here. On the technique in general: Microsomes from liver hold many membrane-bound enzymes, among them those of drug oxidation.
The nature of series [3]: Glutathione reactivity in liver microsomes assessed as GSH-adduct formation. The class given is ADME.
The nature of series [4]: Drug metabolism assessed as nitrile adduct formation in presence of KCN.
The nature of series [5]: Drug metabolism assessed as (S)-7-(4-fluorophenyl)-2-(3-methoxy-4-(3-methyl-1H-1,2,4-triazol-1-yl)phenylamino)-4-(methylamino)-6,7-dihydro-5H-cyclopenta[d]pyrimidin-5-one metabolite formation by LC/MS analysis.
Series [6] can be described thus: Metabolic stability in human liver microsomes assessed as parent compound remaining incubated for 30 mins. Conditions: read-out: Stabilty. In kind it is ADME, Microsome.
A short description of series [7]: Drug metabolism assessed as (5R,7S)-7-(4-fluorophenyl)-2-(3-methoxy-4-(3-methyl-1H-1,2,4-triazol-1-yl)phenylamino)-4-(methylamino)-6,7-dihydro-5H-cyclopenta[d]pyrimidin-5-ol metabolite formation by LC/MS analysis.
Series [8] addresses Cytochrome P450 3A4 (Homo sapiens, UniProt P08684). Put plainly: Time-dependent inhibition of CYP3A4 in human liver microsomes assessed as inhibition constant by Kitz-Wilson plot analysis. In kind it is ADME.
Series [9] in a line: Drug metabolism assessed as iminoquinone A formation.

The structures appear in SMILES notation.

The IC50 is the concentration that inhibits the measured activity by half.

Cytochrome P450 3A4, sequence (P08684 whole entry): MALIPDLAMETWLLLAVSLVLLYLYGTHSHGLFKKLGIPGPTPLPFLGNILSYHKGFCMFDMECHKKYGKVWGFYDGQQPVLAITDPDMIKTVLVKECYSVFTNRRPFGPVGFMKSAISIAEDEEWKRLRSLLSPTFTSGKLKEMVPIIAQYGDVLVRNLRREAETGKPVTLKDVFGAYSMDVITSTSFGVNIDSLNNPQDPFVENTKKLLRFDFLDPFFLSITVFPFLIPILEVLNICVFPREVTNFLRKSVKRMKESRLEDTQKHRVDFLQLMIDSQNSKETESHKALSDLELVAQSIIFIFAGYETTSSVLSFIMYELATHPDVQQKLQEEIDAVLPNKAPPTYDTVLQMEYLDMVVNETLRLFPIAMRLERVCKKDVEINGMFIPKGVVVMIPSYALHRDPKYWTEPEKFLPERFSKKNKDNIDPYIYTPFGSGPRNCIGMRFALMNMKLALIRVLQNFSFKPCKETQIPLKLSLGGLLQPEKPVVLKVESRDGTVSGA

Turning to `CNc1nc(Nc2ccc(-n3cnc(C)n3)c(OC)c2)nc2c1CC[C@]2(O)c1ccc(F)cc1`, in [1], the IC50 amounted to 96 nM.

For the molecule `CNc1nc(Nc2ccc(-n3cnc(C)n3)c(OC)c2)nc2c1C(C)(O)CC2c1ccc(F)cc1` (racemic), the IC50 in series [1] worked out at 60 nM.

On to `CNc1nc(Nc2ccc(-n3cnc(C)n3)c(OC)c2)nc2c1CC[C@@]2(O)c1ccc(F)cc1`, for which the IC50 in series [1] stood at 2300 nM.

Turning to `CNc1nc(Nc2ccc(-n3cnc(C)n3)c(OC)c2)nc2c1/C(=N/O)CC2c1ccc(F)cc1` (racemic), the half-inhibitory concentration (IC50) in [1] is 10 nM.

Regarding `CNc1nc(Nc2ccc(-n3cnc(C)n3)c(OC)c2)nc2c1CC[C@@H]2c1ccc(F)cc1`, the results for the remaining at 0.5 h in [2] and in series [6] were 89% and 94%, respectively. Also, the Drug metabolism entry in [3] is on record as “Not Active”; in series [4] it was “Metabolite detected”; in series [5], “Metabolite detected”; in [7], “Metabolite detected”; in [9], “Metabolite detected”. The Ki in series [8] worked out at 82.5 µM.

With `CNc1nc(Nc2ccc(-n3cnc(C)n3)c(OC)c2)nc2c1/C(=N/O)C[C@H]2c1ccc(F)cc1`, the half-maximal inhibitory concentration (IC50) in [1] came out at 5 nM.

In the case of `CNc1nc(Nc2ccc(-n3cnc(C)n3)c(OC)c2)nc2c1[C@H](O)C[C@H]2c1ccc(F)cc1`, the IC50 in [1] was determined as 17 nM.

On to `CNc1nc(Nc2ccc(-n3cnc(C)n3)c(OC)c2)nc2c1CC[C@H]2c1ccc(F)cc1`, for which the remaining at 0.5 h in [2] came to 89%; in series [6] it was 94%. For the same molecule, the Drug metabolism entry was “Not Active” in series [3]; “Metabolite detected” in [4]; “Metabolite detected” in series [5]; “Metabolite detected” in [7]; “Metabolite detected” in [9].

Take `CNc1nc(Nc2ccc(-n3cnc(C)n3)c(OC)c2)nc2c1C(=O)C[C@H]2c1ccc(F)cc1`: the IC50 in series [1] came to 14 nM.
